# Reference: US20220135622A1, “ANTIBACTERIAL PEPTIDES AND METHODS OF USE” (priority 2019, published 2022)
# Where two headings read alike, the source gives them in different places. Square brackets hold non-standard residues; d marks the D form. Peptide text beside a SMILES is read from it. Bip = N[C@@H](Cc1ccc(-c2ccccc2)cc1)C(=O)O; aThr = C[C@H](O)[C@H](N)C(=O)O; NMeM = CN[C@@H](CCSC)C(=O)O; NMeA = CN[C@@H](C)C(=O)O; Orn = NCCC[C@H](N)C(=O)O; Dap = NC[C@H](N)C(=O)O
# Legend:
# E. coli BW25113 = assay type: cell-based, Escherichia coli
# How it was run: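 Growth inhibition: log-phase cells (OD600 ~0.001), peptides in 2-fold series up to 400–800 μM in MHB II, EDTA 0.5 mM (E. coli) or 0.125 mM (USA300), 4 h at 37 °C, ATP luminescence readout. MICs: inoculum at OD600 ~0.0002, with or without EDTA, 20 h at 37 °C, OD600 endpoint.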
# S. aureus USA300 = test: MIC assay, S. aureus USA300; assay type: cell-based, Staphylococcus aureus; details: Table 7
# Procedure: (§1) Bacterial growth conditions. LB or Mueller Hinton II cation-adjusted broth (MHB II, BBL 212322) was prepared according to manufacturer's instructions and supplemented with arabinose at 0.02% for overnight growth or at indicated concentrations in the description of the figures. Bacterial cultures were grown at 37° C. When appropriate, media was supplemented with kanamycin (50 μg/mL), carbenicillin (50 μg/mL), chloramphenicol (12.5 or 25 μg/mL), hygromycin (200 μg/mL), and/or gentamicin (10 μg/mL).
# (§2) Peptide sensitivity and MIC assays. Lyophilized peptides (Smartox Biotechnology, CPC Scientific. ABclonal) were solubilized to 10 mM in Tris buffer, pH 8, prior to making a 2-fold dilution series in MHBII cation adjusted broth with highest final assay concentration of 400-800 μM. Bacteria were grown to log phase and added to final OD600˜0.001. The final EDTA concentration was 0.5 mM for E. coli strains and 0.125 mM for USA300. The final volume of 10 μL/well in a 384 well black, clear bottom plate (Corning) was spun <1 min at <250×g and then incubated at 37° C. After 4 h, an equal volume (10 μL) of BacTiter-Glo™ (Promega) was added to each well and luminescence was read after 5 min on an EnVision plate reader (PerkinElmer). To measure the minimal inhibitory concentrations (MICs), bacteria from fresh overnight plates or log phase cultures were diluted with or without EDTA and peptides as described above to final OD600˜0.0002. Plates were incubated at 37° C. for 20 h before measuring OD600 with an EnVision plate reader.
# E. coli imp4213 = test: MIC assay, E. coli imp4213; assay type: cell-based, Escherichia coli; details: Table 7
# Procedure: as §1, §2
# K. pneumoniae = assay type: cell-based, Klebsiella pneumoniae; details: Table 8
# How it was run: (§3)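 MHB II cation-adjusted, peptides 2-fold series (top 400-800 μM final), inoculum OD600 ~0.0002, EDTA 0.5 mM (E. coli) / 0.125 mM (USA300) final. 37° C, 20 h, OD600 read-out.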
# A. baumannii = assay type: cell-based, Acinetobacter baumannii; details: Table 8
# How it was run: as §3
# P. aeruginosa = assay type: cell-based, Pseudomonas aeruginosa; details: Table 8
# How it was run: as §3
# E. coli ΔwaaD MCR-1 = test: MIC assay, E. coli ΔwaaD MCR-1; assay type: cell-based, Escherichia coli; details: Table 7
# Procedure: as §1, §2
# E. coli ΔwaaD + vect. = test: MIC assay, E. coli ΔwaaD + vect.; assay type: cell-based, Escherichia coli; details: Table 7
# Procedure: as §1, §2
# E. coli ΔwaaD = test: MIC assay, E. coli ΔwaaD; assay type: cell-based, Escherichia coli; details: Table 7; + EDTA
# Procedure: as §1, §2
Molecule,MIC E. coli BW25113 (E. coli BW25113; Table 8) [µM],MIC S. aureus USA300 (S. aureus USA300) [µM],MIC E. coli imp4213 (E. coli imp4213) [µM],MIC K. pneumoniae (K. pneumoniae),MIC A. baumannii (A. baumannii) [µM],MIC R. aeruginosa (P. aeruginosa) [µM],MIC E coli ΔwaaD − MCR1 (E. coli ΔwaaD MCR-1),MIC E. coli ΔwaaD + vect. (E. coli ΔwaaD + vect.),MIC E coli BW25113 + EDTA (E. coli BW25113; Table 7) [µM],MIC E. coli ΔwaaD + EDTA (E. coli ΔwaaD) [µM],"MIC E. coli BW25113 (E. coli BW25113; Table 7, no EDTA) [µM]"
CSCC[C@H](NC(=O)[C@@H]1CCCN1C(=O)[C@H](Cc1ccc(O)cc1)NC(C)=O)C(=O)N[C@H](C(=O)N[C@@H](C)C(=O)N[C@@H](CCCNC(=N)N)C(=O)N[C@@H](CCCNC(=N)N)C(=O)N[C@@H](Cc1ccccc1)C(=O)N[C@@H](CC(C)C)C(=O)N[C@@H](CCC(=O)O)C(=O)N[C@@H](CCCCN)C(=O)N[C@@H](Cc1c[nH]c2ccccc12)C(=O)NCC(=O)N[C@@H](CC(C)C)C(=O)N[C@@H](CC(C)C)C(=O)N[C@@H](CCCNC(=N)N)C(N)=O)[C@H](C)O [compound 48] (Ac-YPM[aThr]ARRFLEKWGLLR-NH2),400,>400,17.5,400 µM,200,400,400 µM,100 µM,,,
CSCC[C@H](NC(=O)[C@@H]1CCCN1C(=O)[C@H](Cc1ccc(O)cc1)NC(C)=O)C(=O)N[C@@H](CN)C(=O)N[C@@H](C)C(=O)N[C@@H](CCCNC(=N)N)C(=O)N[C@@H](CCCNC(=N)N)C(=O)N[C@@H](Cc1ccccc1)C(=O)N[C@@H](CC(C)C)C(=O)N[C@@H](CCC(=O)O)C(=O)N[C@@H](CCCCN)C(=O)N[C@@H](Cc1c[nH]c2ccccc12)C(=O)NCC(=O)N[C@@H](CC(C)C)C(=O)N[C@@H](CC(C)C)C(=O)N[C@@H](CCCNC(=N)N)C(N)=O [compound 51] (Ac-YPM[Dap]ARRFLEKWGLLR-NH2),100,>400,12.5,200 µM,100,400,200 µM,100 µM,,,
CSCC[C@H](NC(=O)[C@@H]1CCCN1C(=O)[C@H](Cc1ccc(O)cc1)NC(C)=O)C(=O)N[C@H](C(=O)N[C@@H](C)C(=O)N[C@@H](CCCN)C(=O)N[C@@H](CCCNC(=N)N)C(=O)N[C@@H](Cc1ccccc1)C(=O)N[C@@H](CC(C)C)C(=O)N[C@@H](CCC(=O)O)C(=O)N[C@@H](CCCCN)C(=O)N[C@@H](Cc1c[nH]c2ccccc12)C(=O)NCC(=O)N[C@@H](CC(C)C)C(=O)N[C@@H](CC(C)C)C(=O)N[C@@H](CCCNC(=N)N)C(N)=O)[C@@H](C)O [compound 53] (Ac-YPMTA[Orn]RFLEKWGLLR-NH2),400,>400,,800 µM,400,400,400 µM,100 µM,,,
CSCC[C@H](NC(=O)[C@@H]1CCCN1C(=O)[C@H](Cc1ccc(O)cc1)NC(C)=O)C(=O)N[C@H](C(=O)N[C@@H](C)C(=O)N[C@@H](CCCNC(=N)N)C(=O)N[C@@H](CCCNC(=N)N)C(=O)N[C@@H](Cc1ccc(-c2ccccc2)cc1)C(=O)N[C@@H](CC(C)C)C(=O)N[C@@H](CCC(=O)O)C(=O)N[C@@H](CCCCN)C(=O)N[C@@H](Cc1c[nH]c2ccccc12)C(=O)NCC(=O)N[C@@H](CC(C)C)C(=O)N[C@@H](CC(C)C)C(=O)N[C@@H](CCCNC(=N)N)C(N)=O)[C@@H](C)O [compound 55] (Ac-YPMTARR[Bip]LEKWGLLR-NH2),100,>400,6.25,400 µM,25,>800,50 µM,25 µM,,,
CSCC[C@H](NC(=O)[C@@H]1CCCN1C(=O)[C@H](Cc1ccc(O)cc1)NC(C)=O)C(=O)N[C@H](C(=O)N(C)[C@@H](C)C(=O)N[C@@H](CCCNC(=N)N)C(=O)N[C@@H](CCCNC(=N)N)C(=O)N[C@@H](Cc1ccccc1)C(=O)N[C@@H](CC(C)C)C(=O)N[C@@H](CCC(=O)O)C(=O)N[C@@H](CCCCN)C(=O)N[C@@H](Cc1c[nH]c2ccccc12)C(=O)NCC(=O)N[C@@H](CC(C)C)C(=O)N[C@@H](CC(C)C)C(=O)N[C@@H](CCCNC(=N)N)C(N)=O)[C@@H](C)O [compound 64] (Ac-YPMT[NMeA]RRFLEKWGLLR-NH2),400,,12.5,None/400,400,400,400 µM,<6.25 µM,,,
CSCC[C@@H](C(=O)N[C@H](C(=O)N(C)[C@@H](C)C(=O)N[C@@H](CCCNC(=N)N)C(=O)N[C@@H](CCCNC(=N)N)C(=O)N[C@@H](Cc1ccccc1)C(=O)N[C@@H](CC(C)C)C(=O)N[C@@H](CCC(=O)O)C(=O)N[C@@H](CCCCN)C(=O)N[C@@H](Cc1c[nH]c2ccccc12)C(=O)NCC(=O)N[C@@H](CC(C)C)C(=O)N[C@@H](CC(C)C)C(=O)N[C@@H](CCCNC(=N)N)C(N)=O)[C@@H](C)O)N(C)C(=O)[C@@H]1CCCN1C(=O)[C@H](Cc1ccc(O)cc1)NC(C)=O [compound 65] (Ac-YP[NMeM]T[NMeA]RRFLEKWGLLR-NH2),200,800,12.5,200 µM,50,800,100 µM,<6.25 µM,,,
Ac-GSSYPMTARRFLEKWGLLR-NH2 (N-terminus and C-terminus assumed) [compound 5],,,,,,,,,400,100,
Ac-YPMNARRFLEKWGLLR-NH2 [compound 50],400,>400,25,800 µM,400,800,800/400,200 µM,,,
Ac-YPMSARRFLEKWGLLR-NH2 [compound 49],400,>400,25,800 µM,200,400,400 µM,100 µM,,,
Ac-YPMTAQRFLEKWGLLR-NH2 [compound 54],,>400,100,>800 µM,>800,>800,>800 µM,100 µM,,,>400
Ac-YPMTARRFLAKWGLLR-NH2 [compound 57],200,>400,12.5,400 µM,100,200,100/700,100 µM,,,
Ac-YPMTARRFLEKHGL-NH2 [compound 12],,,,,,,,,800,400,
Ac-YPMTARRFLEKWGL-NH2 [compound 44],,>800,100,>800 µM,>800,800,>800 µM,200 µM,,,>400
Ac-YPMTARRYLEKWGLLR-NH2 [compound 56],,>400,25,800 µM,400,800,800 µM,400 µM,,,>400
Ac-YPMTFRRFLEKWGLLR-NH2 [compound 59],400,>400,12.5,800 µM,50,>800,50 µM,25 µM,,,
Ac-YPMTMRRFLEKWGLLR-NH2 [compound 58],400,>400,12.5,400 µM,25,>800,50 µM,50/25,,,
